This is an account of results in ChEMBL document CHEMBL1201862, “PubChem BioAssay data set” (2004).

Common to all, as to assay: NCI tumour cell line growth inhibition, 48 h
Assay [1] deals with DMS-114.
Assay [2] relates to HOP-18.
For assay [3], the system named is KM-20L2.
Assay [4] deals with Hs-578T.
For assay [5], the system named is MDA-N.
Assay [6] relates to PC-3.
The test system of assay [7] is 786-0.
Assay [8] relates to LXFL 529.
Assay [9] relates to RXF 631.

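Protocol summary: plate cells (96-well), add compound at 5 concentrations, incubate 48 h, interpolate endpoints linearly. GI50: concentration for 50% inhibition of growth.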 Activity calls are given as the source filed them. Rule as the data show it: active = GI50 up to about 1.1 µM and inactive = higher. Where only a bound is given, the exact number is not on record here.

For the molecule `C=C1C(O)C2(O)OCC34C(CC5C(C)=CC(=O)C(O)C5(C)C23)OC(=O)C(OC(=O)C/C=C/CCCCCCCC)C14` (configuration not stated), the GI50 is 0.02 µM (active) in assay [1], 0.0776 µM (active) in assay [2] and 0.0208 µM (active) in [3].

Regarding `Cc1c(N)nc([C@H](CC(N)=O)NC[C@H](N)C(N)=O)nc1C(=O)N[C@H](C(=O)N[C@H](C)[C@@H](O)CC(=O)N[C@H](C(=O)NC(O[C@@H]1O[C@@H](C)[C@@H](N)[C@@H](O)[C@H]1O)C(O)c1nc(-c2nc(C(=O)NCCCCN)cs2)cs1)[C@@H](C)O)[C@@H](O[C@@H]1O[C@@H](CO)[C@@H](O)[C@H](O)[C@@H]1O[C@H]1O[C@H](CO)[C@@H](O)[C@H](OC(N)=O)[C@@H]1O)c1c[nH]cn1` (some centres not stated), the GI50 in [4] is 18.7 µM (inactive); in assay [5], > 50 µM (inactive); in assay [6], > 50 µM (inactive).

`Cc1[nH]c(-c2ccccc2)c(O)c1C(=O)OC1CC(C)CCC1C(C)C` (configuration not stated): the GI50 is 15.3 µM (inactive) in assay [7], 18.3 µM (inactive) in assay [4], 16.3 µM (inactive) in [5] and 13.8 µM (inactive) in [6].

As for `O=[N+]([O-])/C(C(Cl)=C(Cl)Cl)=C1\Nc2ccccc2O1`, the GI50 in assay [7] is 17 µM (inactive); in assay [4], 32.3 µM (inactive); in assay [5], 45.4 µM (inactive); in [6], 70.5 µM (inactive).

For the molecule `Nc1nc(Cl)cc(NCCCCO)n1`, the GI50 in [1], in assay [3], in assay [8] and in [9] was > 100 µM (inactive) throughout.

`CSc1nc(NC2OCC(O)C(O)C2O)c(N)c(=O)n1C` (configuration not stated): the GI50 in assay [2] and in assay [3] was > 100 µM (inactive) each time.

For the molecule `CC(C)(C)c1ccc2c(c1)OP1(Oc3cccc4cccnc34)(O2)Oc2ccc(C(C)(C)C)cc2O1`, the GI50 is 0.71 µM (active) in [1], 20.4 µM (inactive) in assay [2] and 4.05 µM (inactive) in assay [3].

Turning to `Cc1ccc(NC(=O)C2C(=O)N(c3ccc(C)c(C)c3)C(=O)/C2=N\NC(N)=S)cc1C` (configuration not stated), the GI50 in [7], in [3], in [8] and in [9] was > 100 µM (inactive) throughout.

Take `Nc1nc(SCCc2ccccc2)nc2nc3c(c(-c4ccccc4)c12)CCCC3`: the GI50 is 8.65 µM (inactive) in assay [4], > 100 µM (inactive) in [5] and > 100 µM (inactive) in assay [6].

For the molecule `Cc1cc([N+](=O)[O-])ccc1/N=N/C(=O)NNc1ccc([N+](=O)[O-])cc1C`, the GI50 in [7] was 16.9 µM (inactive); in [5], 15.7 µM (inactive); in assay [6], 13.5 µM (inactive).

On to `CCOC(=O)CC1(c2cccc3ccccc23)OC(=O)c2ccccc21` (configuration not stated), for which the GI50 in assay [1] was 30.6 µM (inactive); in assay [2], 40.4 µM (inactive); in assay [3] it was 45 µM (inactive); in [8] it was 51.2 µM (inactive).

With `COC(C[C@H]1CCCC[C@]1(O)/C(=C\CO[Si](C(C)C)(C(C)C)C(C)C)Sc1ccccc1)OC`, the GI50 in [7] was 39.4 µM (inactive); in [4] it was 29.4 µM (inactive); in [5], 45.2 µM (inactive); in assay [6], 35.6 µM (inactive).

Take `CC(Oc1ccc(Cl)cc1Cl)C(=O)NN1C(=O)CC(=O)NC1=S` (configuration not stated): the GI50 in [7], in assay [4], in assay [5] and in assay [6] was > 100 µM (inactive) throughout.

Consider `O=C(NC(Cc1ccc(I)cc1)C(=O)O)c1cccc(Br)c1` (configuration not stated), for which the values for the GI50 in [1], in assay [2] and in assay [3] were 48 µM (inactive), > 82.4 µM (inactive) and > 100 µM (inactive), respectively.

As for `CON(C)c1nc(N)c(C#N)c(C#N)c1C#N`, the GI50 in [4], in assay [5] and in assay [6] was > 10 µM (inactive) in each case.

On to `O=P(Nc1ccc(Cl)cc1)(Oc1ccccc1)N(CCCl)CCCl` (configuration not stated), for which the GI50 in assay [1] is > 100 µM (inactive); in [2] it was > 100 µM (inactive); in [3], > 100 µM (inactive); in [8], > 100 µM (inactive); in assay [9] it was 63.7 µM (inactive).

On to `COn1oc(=O)c2ccccc21`, for which the GI50 in assay [7], in assay [4], in [5] and in [6] was > 100 µM (inactive) each time.

Turning to `CCC1NC(/N=N/c2ccc([N+](=O)[O-])cc2)(P(=O)(OC(C)C)OC(C)C)OC1=O` (configuration not stated), the GI50 in [3] and in assay [8] was > 100 µM (inactive) each time.

Regarding `O=C1C[C@H](c2ccccc2)C2(C(=O)c3ccccc3C2=O)[C@H](c2ccccc2)C1`, the GI50 is 29.8 µM (inactive) in assay [4], 85.7 µM (inactive) in [5] and > 100 µM (inactive) in assay [6].

For `C[C@]12CCC3[C@@H](C[C@H]4OC(=O)[C@@]35CCC(=O)C=C45)C1CCC2=O` (some centres not stated), the GI50 in [7], in [1], in assay [2] and in assay [8] was > 100 µM (inactive) throughout.

For `C/C(=C\c1ccccc1)n1c(=O)cc(C)n1C`, the GI50 in assay [4], in assay [5] and in assay [6] was > 100 µM (inactive) each time.
